Assay results from patent US20100062052A1, “PEPTIDE-BASED COMPOUNDS AS NEW INHIBITORS OF METALLOECTOPEPTIDASES, COMPOSITIONS COMPRISING SAID COMPOUNDS AND THEIR PHARMACEUTICAL AND COSMETIC USES” (GREENPHARMA, priority 2007, published 2010).
Residues, ends and D or L forms follow the SMILES beside them. *: point of attachment. Palmitoyl = CCCCCCCCCCCCCCCC(=O)*

Test: Solubility in aqueous Tris-buffer
Type: physicochemical
Settings: diluted from ethanol stock, read-out: solubility limit in aqueous Tris-buffer conditions

SMILES: CCCCCCCCCCCCCCCC(=O)N[C@@H](CCC(N)=O)C(=O)N[C@@H](CCCNC(=N)N)C(=O)N[C@@H](Cc1ccccc1)C(=O)N[C@@H](CO)C(=O)N[C@@H](CCCNC(=N)N)C(N)=O [Pal-QRFSR-NH2, palmitoyl-QRFSR-NH2] (Palmitoyl-QRFSR-NH2)
- solubility: ≤ 70 µM
